Laboratory results as given in patent publication US20070243180A1, “Composition Containing Reduced Coenzyme Q” (priority 2003, published 2007).

Key:
[1] = Stability testing of reduced coenzyme Q10 against autooxidation on storage in air, protected against light; type: physicochemical; details: in the presence of air, at 4 weeks after starting storage, HPLC
Procedure: In the examples, a reduced coenzyme Q concentration and an oxidized coenzyme Q concentration were determined by the following HPLC analysis. Column; SYMMETRY C18 (product of Waters Corporation), 250 mm (length), 4.6 mm (inside diameter), mobile phase; C2H5OH:CH3OH=4:3 (v:v), detection wavelength; 210 nm, flow rate; 1 ml/min, retention time for a reduced coenzyme Q10; 9.1 min, retention time for an oxidized coenzyme Q10; 13.3 min. Reduced coenzyme Q10 bulk powder (Q-OH bulk powder) containing 2% of oxidized coenzyme Q10 and the powdery compositions I to IV respectively obtained in Examples 1 to 4 were subjected to stability testing in the following manner. Thus, each composition (test sample) was placed in a microtube and stored, in a state protected against light, at 23° C. or 40° C. in the presence of air. After 1, 2 or 4 weeks of storage, 25 mg of each sample was sampled and dissolved in ethanol, the concentrations of oxidized coenzyme Q10 and reduced coenzyme Q10 were measured by HPLC and the percentage of reduced coenzyme Q10 in total coenzyme Q10 as contained in the composition (test sample) was determined.

[2] = Solubility testing in water; type: physicochemical; details: 1 g in 100 ml of water, stirred at 5,000 rpm for 30 seconds, observed after 1 hour of standing
Procedure: Coenzyme Q10 bulk powder (Q-OH bulk powder) containing 98% of reduced coenzyme Q10 and the powdery compositions obtained in Examples 1 to 4 were subjected to solubility testing in the following manner. Thus, 1 g of each composition (test sample) was added to 100 ml of water, and the mixture was stirred at 5,000 rpm for 30 seconds using a mixer and then allowed to stand.

Q: For COc1c(O)c(C)c(C/C=C(\C)CC/C=C(\C)CC/C=C(\C)CC/C=C(\C)CC/C=C(\C)CC/C=C(\C)CC/C=C(\C)CC/C=C(\C)CC/C=C(\C)CCC=C(C)C)c(O)c1OC [reduced coenzyme Q10], which “residual reduced coenzyme Q10 percentage relative to total coenzyme Q10 contained in the composition” value ([1]; stored at 23° C.) is on record?
A: 41%

Q: And the “residual reduced coenzyme Q10 percentage relative to total coenzyme Q10 contained in the composition” value ([1]; stored at 40° C.)?
A: 11%

Q: And the Solubility in water [2]?
A: Insoluble

Q: What about the Solubility in water ([2]; listed as Coenzyme Q10 bulk powder (Q-OH bulk powder)) of the same compound?
A: insoluble, forming orange-colored oil drops floating on the water
